Reference: ChEMBL document CHEMBL4507283, “Data for DCP probe BI-1935” (2021)

How the values were obtained:
[1] = biological target: STE20-like serine/threonine-protein kinase (Homo sapiens) (UniProt Q9H2G2); settings: Compound concentration 1000.0 nM
[2] = system: Hepatocyte growth factor receptor (Homo sapiens), P08581 [M1250T]; settings: Compound concentration 1000.0 nM
[3] = biological target: Maternal embryonic leucine zipper kinase (Homo sapiens) (UniProt Q14680); settings: Compound concentration 1000.0 nM
[4] = biological target: AP2-associated protein kinase 1 (Homo sapiens) (UniProt Q2M2I8); settings: Compound concentration 1000.0 nM
[5] = biological target: Casein kinase I isoform delta (Homo sapiens) (UniProt P48730); settings: Compound concentration 1000.0 nM
[6] = biological target: MAP/microtubule affinity-regulating kinase 4 (Homo sapiens) (UniProt Q96L34); settings: Compound concentration 1000.0 nM
[7] = biological target: cAMP-dependent protein kinase catalytic subunit alpha (Homo sapiens) (UniProt P17612); settings: Compound concentration 1000.0 nM
[8] = biological target: Aurora kinase A (Homo sapiens) (UniProt O14965); settings: Compound concentration 1000.0 nM
[9] = biological target: D(2) dopamine receptor (Homo sapiens) (UniProt P14416); settings: Compound concentration 10.0 uM
[10] = biological target: Mast/stem cell growth factor receptor Kit (Homo sapiens) (UniProt P10721); settings: Compound concentration 1000.0 nM
[11] = system: Mast/stem cell growth factor receptor Kit (Homo sapiens), P10721 [L576P]; settings: Compound concentration 1000.0 nM
[12] = biological target: 5-hydroxytryptamine receptor 2C (Homo sapiens) (UniProt P28335); settings: Compound concentration 10.0 uM
[13] = biological target: Serine/threonine-protein kinase PLK4 (Homo sapiens) (UniProt O00444); settings: Compound concentration 1000.0 nM
[14] = biological target: Tyrosine-protein kinase ABL1 (Homo sapiens) (UniProt P00519); settings: Compound concentration 1000.0 nM
[15] = biological target: Insulin-like growth factor 1 receptor (Homo sapiens) (UniProt P08069); settings: Compound concentration 1000.0 nM
[16] = biological target: B2 bradykinin receptor (Homo sapiens) (UniProt P30411); test: B2/HU Eurofins-Panlabs selectivity data (BI); settings: Compound concentration 10.0 uM
[17] = biological target: Ephrin type-B receptor 6 (Homo sapiens) (UniProt O15197); settings: Compound concentration 1000.0 nM
[18] = biological target: Calcium/calmodulin-dependent protein kinase type II subunit delta (Homo sapiens) (UniProt Q13557); settings: Compound concentration 1000.0 nM
[19] = biological target: 5-hydroxytryptamine receptor 2A (Homo sapiens) (UniProt P28223); settings: Compound concentration 10.0 uM
[20] = biological target: Sodium-dependent serotonin transporter (Homo sapiens) (UniProt P31645); test: 5HTTRANS/HU Eurofins-Panlabs selectivity data (BI); settings: Compound concentration 10.0 uM
[21] = biological target: T1, 5-hydroxytryptamine receptor 3A (Homo sapiens) (UniProt P46098); test: 5HT3/HU Eurofins-Panlabs selectivity data (BI); settings: Compound concentration 10.0 uM
T1 sequence (whole entry): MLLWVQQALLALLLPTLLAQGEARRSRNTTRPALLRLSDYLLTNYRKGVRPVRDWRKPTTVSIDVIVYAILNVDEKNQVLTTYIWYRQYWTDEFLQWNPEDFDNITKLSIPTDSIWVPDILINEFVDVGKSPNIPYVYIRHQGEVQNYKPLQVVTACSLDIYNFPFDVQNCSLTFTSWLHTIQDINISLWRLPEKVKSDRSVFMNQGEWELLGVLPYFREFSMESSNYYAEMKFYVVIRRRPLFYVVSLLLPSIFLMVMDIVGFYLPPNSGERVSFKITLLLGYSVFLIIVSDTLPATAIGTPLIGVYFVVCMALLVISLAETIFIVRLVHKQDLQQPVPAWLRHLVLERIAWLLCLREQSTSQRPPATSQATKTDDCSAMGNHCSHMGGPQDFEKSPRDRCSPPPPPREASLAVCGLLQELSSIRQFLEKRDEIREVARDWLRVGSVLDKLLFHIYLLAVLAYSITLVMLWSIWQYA

[22] = biological target: Serine/threonine-protein kinase Nek3 (Homo sapiens) (UniProt P51956); settings: Compound concentration 1000.0 nM
[23] = biological target: Serine/threonine-protein kinase 32B (Homo sapiens) (UniProt Q9NY57); settings: Compound concentration 1000.0 nM
[24] = biological target: Serine/threonine-protein kinase 38-like (Homo sapiens) (UniProt Q9Y2H1); settings: Compound concentration 1000.0 nM
[25] = biological target: Serine/threonine-protein kinase TAO1 (Homo sapiens) (UniProt Q7L7X3); settings: Compound concentration 1000.0 nM
[26] = biological target: Calcium/calmodulin-dependent protein kinase type II subunit alpha (Homo sapiens) (UniProt Q9UQM7); settings: Compound concentration 1000.0 nM
[27] = biological target: Neutrophil elastase (Homo sapiens) (UniProt P08246); test: ELASTASEPMN Eurofins-Panlabs selectivity data (BI); settings: Compound concentration 10.0 uM
[28] = biological target: cAMP-dependent protein kinase catalytic subunit PRKX (Homo sapiens) (UniProt P51817); settings: Compound concentration 1000.0 nM
[29] = biological target: Histamine H1 receptor (Homo sapiens) (UniProt P35367); test: H1/H Eurofins-Panlabs selectivity data (BI); settings: Compound concentration 10.0 uM
[30] = system: Mast/stem cell growth factor receptor Kit (Homo sapiens), P10721 [V559D]; settings: Compound concentration 1000.0 nM
[31] = biological target: Serine/threonine-protein kinase TNNI3K (Homo sapiens) (UniProt Q59H18); settings: Compound concentration 1000.0 nM
[32] = biological target: Mitogen-activated protein kinase kinase kinase kinase 4 (Homo sapiens) (UniProt O95819); settings: Compound concentration 1000.0 nM
[33] = biological target: Tyrosine-protein kinase TXK (Homo sapiens) (UniProt P42681); settings: Compound concentration 1000.0 nM
[34] = biological target: Rhodopsin kinase GRK7 (Homo sapiens) (UniProt Q8WTQ7); settings: Compound concentration 1000.0 nM
[35] = biological target: Receptor tyrosine-protein kinase erbB-3 (Homo sapiens) (UniProt P21860); settings: Compound concentration 1000.0 nM
[36] = biological target: Misshapen-like kinase 1 (Homo sapiens) (UniProt Q8N4C8); settings: Compound concentration 1000.0 nM
[37] = biological target: GABA-A receptor; anion channel (Rattus norvegicus) (UniProt O09028+P15431+P18506+P18508+P19969+P20236+P23574+P23576+P28471+P28473+P30191+P62813+P63079+P63138+Q91ZM7+Q9ES14); settings: Compound concentration 10.0 uM
[38] = biological target: Mast/stem cell growth factor receptor Kit (Homo sapiens) (UniProt P10721); settings: Compound concentration 1000.0 nM; remark: listed apart in the source

Mast/stem cell growth factor receptor Kit (Homo sapiens), sequence (P10721 whole entry): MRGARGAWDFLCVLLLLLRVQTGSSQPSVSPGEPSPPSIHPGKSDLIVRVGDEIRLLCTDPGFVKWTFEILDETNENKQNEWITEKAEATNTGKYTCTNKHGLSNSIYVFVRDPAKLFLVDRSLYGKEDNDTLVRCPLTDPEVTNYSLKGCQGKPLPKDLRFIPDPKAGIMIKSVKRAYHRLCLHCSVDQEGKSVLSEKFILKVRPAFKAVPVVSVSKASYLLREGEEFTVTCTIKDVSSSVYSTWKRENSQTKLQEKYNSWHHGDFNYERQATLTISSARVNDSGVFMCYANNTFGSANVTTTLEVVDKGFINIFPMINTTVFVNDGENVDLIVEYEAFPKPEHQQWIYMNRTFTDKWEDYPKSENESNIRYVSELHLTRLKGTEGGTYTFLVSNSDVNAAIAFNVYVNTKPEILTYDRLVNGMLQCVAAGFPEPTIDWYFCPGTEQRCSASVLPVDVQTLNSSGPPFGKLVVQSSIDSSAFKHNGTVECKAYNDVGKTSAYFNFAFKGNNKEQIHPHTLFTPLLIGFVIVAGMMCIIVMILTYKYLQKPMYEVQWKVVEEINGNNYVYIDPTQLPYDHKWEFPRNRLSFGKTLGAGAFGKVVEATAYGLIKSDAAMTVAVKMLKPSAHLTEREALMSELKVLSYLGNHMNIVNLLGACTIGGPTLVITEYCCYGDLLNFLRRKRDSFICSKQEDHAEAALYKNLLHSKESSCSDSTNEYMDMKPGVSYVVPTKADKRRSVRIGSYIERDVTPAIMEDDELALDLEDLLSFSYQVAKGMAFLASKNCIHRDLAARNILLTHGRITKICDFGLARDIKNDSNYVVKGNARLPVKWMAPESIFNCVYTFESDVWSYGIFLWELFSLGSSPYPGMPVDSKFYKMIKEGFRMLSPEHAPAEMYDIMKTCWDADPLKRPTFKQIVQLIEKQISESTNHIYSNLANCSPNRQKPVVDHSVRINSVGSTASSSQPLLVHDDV
B2 bradykinin receptor (Homo sapiens), sequence (P30411 whole entry): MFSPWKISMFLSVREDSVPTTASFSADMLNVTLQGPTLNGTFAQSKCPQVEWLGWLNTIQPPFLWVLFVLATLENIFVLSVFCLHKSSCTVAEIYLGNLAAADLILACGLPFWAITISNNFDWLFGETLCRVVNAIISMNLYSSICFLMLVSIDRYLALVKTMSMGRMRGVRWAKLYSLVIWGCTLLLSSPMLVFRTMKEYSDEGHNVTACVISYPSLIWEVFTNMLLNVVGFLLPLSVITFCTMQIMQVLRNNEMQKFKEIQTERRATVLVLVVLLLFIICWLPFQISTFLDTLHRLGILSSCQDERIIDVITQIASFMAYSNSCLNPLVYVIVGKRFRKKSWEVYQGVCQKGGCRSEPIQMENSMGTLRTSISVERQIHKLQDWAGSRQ
Mast/stem cell growth factor receptor Kit (Homo sapiens), P10721 [L576P], sequence (P10721 whole entry L576P): as the sequence (P10721 whole entry) above, with L576P counted along it
cAMP-dependent protein kinase catalytic subunit PRKX (Homo sapiens), sequence (P51817 whole entry): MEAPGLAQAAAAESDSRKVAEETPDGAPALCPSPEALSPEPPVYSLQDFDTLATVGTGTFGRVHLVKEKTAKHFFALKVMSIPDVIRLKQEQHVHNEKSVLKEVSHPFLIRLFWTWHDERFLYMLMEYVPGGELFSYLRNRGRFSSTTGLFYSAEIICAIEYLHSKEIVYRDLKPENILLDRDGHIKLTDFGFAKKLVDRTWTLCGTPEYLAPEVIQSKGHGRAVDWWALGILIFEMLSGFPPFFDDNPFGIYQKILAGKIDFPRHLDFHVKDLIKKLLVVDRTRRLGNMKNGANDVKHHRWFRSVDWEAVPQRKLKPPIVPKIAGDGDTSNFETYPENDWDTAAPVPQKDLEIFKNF
Serine/threonine-protein kinase TAO1 (Homo sapiens), sequence (Q7L7X3 whole entry): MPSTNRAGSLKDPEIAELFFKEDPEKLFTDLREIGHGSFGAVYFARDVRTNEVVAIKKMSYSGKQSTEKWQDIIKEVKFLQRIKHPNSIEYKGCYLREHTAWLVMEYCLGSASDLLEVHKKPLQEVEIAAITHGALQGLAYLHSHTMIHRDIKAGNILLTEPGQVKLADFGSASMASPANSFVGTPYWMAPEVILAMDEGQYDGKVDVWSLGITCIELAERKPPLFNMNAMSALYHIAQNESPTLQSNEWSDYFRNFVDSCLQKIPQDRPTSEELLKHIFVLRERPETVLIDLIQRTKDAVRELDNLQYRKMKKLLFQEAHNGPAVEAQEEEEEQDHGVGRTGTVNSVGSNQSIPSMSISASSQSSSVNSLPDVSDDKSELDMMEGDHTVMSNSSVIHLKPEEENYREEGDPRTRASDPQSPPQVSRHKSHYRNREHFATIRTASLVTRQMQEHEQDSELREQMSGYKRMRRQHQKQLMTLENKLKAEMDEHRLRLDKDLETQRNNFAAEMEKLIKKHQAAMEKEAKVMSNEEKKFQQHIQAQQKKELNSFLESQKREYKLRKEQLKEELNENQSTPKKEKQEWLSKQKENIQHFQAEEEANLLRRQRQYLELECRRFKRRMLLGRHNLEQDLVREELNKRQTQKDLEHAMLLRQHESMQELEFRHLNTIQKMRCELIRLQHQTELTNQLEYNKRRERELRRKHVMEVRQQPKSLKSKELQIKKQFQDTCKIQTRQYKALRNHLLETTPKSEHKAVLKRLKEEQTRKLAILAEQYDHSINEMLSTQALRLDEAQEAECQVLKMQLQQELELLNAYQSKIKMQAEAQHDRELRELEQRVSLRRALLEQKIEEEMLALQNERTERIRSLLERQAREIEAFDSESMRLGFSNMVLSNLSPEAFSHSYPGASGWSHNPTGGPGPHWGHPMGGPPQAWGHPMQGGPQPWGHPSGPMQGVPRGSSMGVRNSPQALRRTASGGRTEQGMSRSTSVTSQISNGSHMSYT
5-hydroxytryptamine receptor 2A (Homo sapiens), sequence (P28223 whole entry): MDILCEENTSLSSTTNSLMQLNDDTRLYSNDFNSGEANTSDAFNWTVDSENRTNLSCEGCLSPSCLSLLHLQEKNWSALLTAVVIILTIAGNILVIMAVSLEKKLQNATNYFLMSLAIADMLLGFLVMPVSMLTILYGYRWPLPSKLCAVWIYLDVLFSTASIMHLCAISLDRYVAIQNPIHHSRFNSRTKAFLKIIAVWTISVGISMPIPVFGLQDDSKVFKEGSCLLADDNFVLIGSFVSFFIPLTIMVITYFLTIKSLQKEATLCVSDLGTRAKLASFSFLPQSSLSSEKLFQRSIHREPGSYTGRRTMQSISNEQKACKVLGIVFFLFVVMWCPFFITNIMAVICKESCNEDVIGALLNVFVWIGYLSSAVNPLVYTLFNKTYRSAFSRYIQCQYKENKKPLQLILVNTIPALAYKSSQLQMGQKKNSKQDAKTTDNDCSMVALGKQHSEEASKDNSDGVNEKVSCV
Calcium/calmodulin-dependent protein kinase type II subunit alpha (Homo sapiens), sequence (Q9UQM7 whole entry): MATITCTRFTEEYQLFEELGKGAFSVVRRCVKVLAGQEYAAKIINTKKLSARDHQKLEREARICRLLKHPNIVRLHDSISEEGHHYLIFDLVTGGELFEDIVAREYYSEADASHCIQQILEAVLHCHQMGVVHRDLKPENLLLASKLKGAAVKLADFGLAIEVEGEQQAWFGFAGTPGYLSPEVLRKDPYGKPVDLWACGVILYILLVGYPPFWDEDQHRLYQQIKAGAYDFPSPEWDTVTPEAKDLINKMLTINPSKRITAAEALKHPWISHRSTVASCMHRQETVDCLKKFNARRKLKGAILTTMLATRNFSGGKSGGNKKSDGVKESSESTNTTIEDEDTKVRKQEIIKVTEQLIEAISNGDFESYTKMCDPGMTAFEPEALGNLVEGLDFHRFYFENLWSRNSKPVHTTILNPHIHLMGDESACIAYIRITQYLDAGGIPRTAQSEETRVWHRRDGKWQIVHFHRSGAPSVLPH
Neutrophil elastase (Homo sapiens), sequence (P08246 whole entry): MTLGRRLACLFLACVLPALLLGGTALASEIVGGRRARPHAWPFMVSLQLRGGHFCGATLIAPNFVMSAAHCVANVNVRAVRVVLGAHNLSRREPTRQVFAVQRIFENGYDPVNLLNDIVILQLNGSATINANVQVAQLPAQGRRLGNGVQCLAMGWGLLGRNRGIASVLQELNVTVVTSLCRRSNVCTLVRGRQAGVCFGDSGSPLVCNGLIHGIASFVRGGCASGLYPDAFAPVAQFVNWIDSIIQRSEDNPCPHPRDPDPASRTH

CCOCCn1cc(C(=O)Nc2ccc(-n3nc(-c4cccnc4)cc3C(F)(F)F)cn2)ccc1=O [BI 1935]
inactive: residual activity [1] 100% | residual activity [2] 96% | residual activity [3] 93% | residual activity [4] 100% | residual activity [5] 100% | residual activity [6] 100% | residual activity [7] 92% | residual activity [8] 85% | inhibition [9] -5.62% | residual activity [10] 100% | residual activity [11] 94% | inhibition [12] 3.75% | residual activity [13] 100% | residual activity [14] 94% | residual activity [15] 96% | residual activity [16] 100% | residual activity [17] 94% | residual activity [18] 100% | inhibition [19] -4.26% | residual activity [20] 100% | residual activity [21] 117% | residual activity [22] 100% | residual activity [23] 100% | residual activity [24] 66% | residual activity [25] 87% | residual activity [26] 93% | residual activity [27] 100% | residual activity [28] 100% | residual activity [29] 98% | residual activity [30] 87% | residual activity [31] 100% | residual activity [32] 91% | residual activity [33] 81% | residual activity [34] 88% | residual activity [35] 87% | residual activity [36] 89% | inhibition [37] 18.1% | residual activity [38] 89%
